Measurements as given in article PMC5116089, “Sulfheme formation during homocysteine S-oxygenation by catalase in cancers and neurodegenerative diseases” (Nature Communications, 2016).
Like-named read-outs stand apart in the source and are kept apart here.

Tested on: Hek 293T cells
Experiment: H2O2 consumption in cell lysates as a function of NaSH concentration
Type: biochemical
Conditions: read-out: relative IC50 (rate of H2O2 consumption)
Method: CAT activity was measured on an Uvikon 941 spectrophotometer equipped with a temperature controlled water bath (±1 °C) by following the disappearance of H2O2 at 240 nm over 30–120 s at 25 °C. Catalase activity was calculated based on the rate of decomposition of hydrogen peroxide, which is proportional to the reduction of the absorbance at 240 nm. Experiments were carried out in a 3 ml quartz cuvette containing 11.7 mM H2O2 in 50 mM KPi, pH 7.4±1 mM DTPA and the reaction was initiated by adding 0.3–0.6 pmoles of CAT. The effect of biological thiols on the activity of CAT under physiological conditions was determined from a solution of CAT (30–60 nM) preincubated at 25 °C for at least 120 min as a function thiol concentration (0–40 mM for HCys and Cys, 0–100 mM for GSH) in 50 mM KPi, pH 7.4, 1 mM DTPA. Control experiments (biological thiols alone) were also performed in parallel. […] Similarly, the effect of biological thiols on the activity of CAT under pathological conditions was determined from a solution of CAT (30–60 nM) containing a 2.124±0.386 molar excess of iron that was preincubated with various concentrations of thiols (0–1 mM) for at least 120 min at 25 °C in 50 mM KP at pH 7.4. […] The effect of NaSH on the consumption of H2O2 in cell lysates was determined from a solution of cell lysates (0.5–3 mg ml^−1) incubated on ice with various concentrations of NaSH (0–200 μM). […]

**Q.** Which IC50 (Hek 293T cells transfected with Htt) does the source give for `[Na+].[SH-]` [NaSH] here?
**A.** 4 ± 1.5 µM

**Q.** And the IC50 (Hek 293T cells transfected with pcDNA)?
**A.** 6.5 ± 3.6 µM
